# Experimental data from patent US20260274892A1, “MACROCYCLIC BROAD SPECTRUM ANTIBIOTICS” (RQx Pharmaceuticals, Inc., priority 2017, published 2026).
# Test system: Escherichia coli ATCC 25922
# Test: Minimum inhibitory concentration (MIC), CLSI broth micro-dilution, E. coli
# Assay type: cell-based
# Conditions: Escherichia coli, ATCC25922, 22 h, Table 7, cation adjusted Mueller Hinton Broth + 0.002% Tween-80, 35° C.
# How it was run: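 Colonies grown 20 h at 35° C on Trypticase Soy agar (MRSA) or Luria agar (E. coli) were suspended in cation-adjusted Mueller Hinton broth with 0.002% Tween-80. Suspensions were added at OD600 0.0005 to 10-point twofold compound dilutions, then incubated 22 h at 35° C.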
row,MIC [µM],Compound
1,0.063,"Cc1nc(-c2ccc(C(C)(C)C)cc2)nc(C)c1C(=O)N[C@@H](CCN)C(=O)N(C)[C@@H]1C(=O)N[C@@H](C)C(=O)N[C@H](C(=O)NCC#N)Cc2ccc(O)c(c2)-c2cc1ccc2OCCNCCCN (racemic) [Compound 602, rac-(8S,11S,14S)-18-[2-(3-aminopropylamino)ethoxy]-N-(cyanomethyl)-3-hydroxy-11-methyl-14-[methyl-[rac-(2S)-4-amino-2-[[2-(4-tert-butylphenyl)-4,6-dimethyl-pyrimidine-5-carbonyl]amino]butanoyl]amino]-10,13-dioxo-9,12-diazatricyclo[13.3.1.12,6]icosa-1(18),2(20),3,5,15(19),16-hexaene-8-carboxamide]"
2,0.75,"Cc1nc(-c2ccc(C(C)(C)C)cc2)nc(C)c1C(=O)N[C@@H](CCN)C(=O)N(C)[C@@H]1C(=O)N[C@@H](C)C(=O)N[C@H](C(=O)NCC#N)Cc2ccc(O)c(c2)-c2cc1ccc2OC1CNC1 (racemic) [Compound 604, rac-(8S,11S,14S)-18-(azetidin-3-yloxy)-N-(cyanomethyl)-3-hydroxy-11-methyl-14-[methyl-[rac-(2S)-4-amino-2-[[2-(4-tert-butylphenyl)-4,6-dimethyl-pyrimidine-5-carbonyl]amino]butanoyl]amino]-10,13-dioxo-9,12-diazatricyclo[13.3.1.12,6]icosa-1(18),2(20),3,5,15(19),16-hexaene-8-carboxamide]"
3,0.75,"Cc1nc(-c2ccc(C(C)(C)C)cc2)nc(C)c1C(=O)N[C@@H](CCN)C(=O)N(C)[C@@H]1C(=O)N[C@@H](C)C(=O)N[C@H](C(=O)NCC#N)Cc2ccc(OC3CNC3)c(c2)-c2cc1ccc2O (racemic) [Compound 605, rac-(8S,11S,14S)-3-(azetidin-3-yloxy)-N-(cyanomethyl)-18-hydroxy-11-methyl-14-[methyl-[rac-(2S)-4-amino-2-[[2-(4-tert-butylphenyl)-4,6-dimethyl-pyrimidine-5-carbonyl]amino]butanoyl]amino]-10,13-dioxo-9,12-diazatricyclo[13.3.1.12,6]icosa-1(18),2(20),3,5,15(19),16-hexaene-8-carboxamide]"
4,0.5,"Cc1nc(-c2ccc(C(C)(C)C)cc2)nc(C)c1C(=O)N[C@@H](CCN)C(=O)N(C)[C@@H]1C(=O)N[C@@H](C)C(=O)N[C@H](C(=O)NCC#N)Cc2ccc(OC(C)CN)c(c2)-c2cc1ccc2O (mixture of isomers) [Compound 606, rac-(8S,11S,14S)-3-(2-amino-1-methyl-ethoxy)-N-(cyanomethyl)-18-hydroxy-11-methyl-14-[methyl-[rac-(2S)-4-amino-2-[[2-(4-tert-butylphenyl)-4,6-dimethyl-pyrimidine-5-carbonyl]amino]butanoyl]amino]-10,13-dioxo-9,12-diazatricyclo[13.3.1.12,6]icosa-1(18),2(20),3,5,15(19),16-hexaene-8-carboxamide]"
5,0.5,"Cc1nc(-c2ccc(C(C)(C)C)cc2)nc(C)c1C(=O)N[C@@H](CCN)C(=O)N(C)[C@@H]1C(=O)N[C@@H](C)C(=O)N[C@H](C(=O)NCC#N)Cc2ccc(O)c(c2)-c2cc1ccc2OC(C)CN (mixture of isomers) [Compound 607, rac-(8S,11S,14S)-18-(2-amino-1-methyl-ethoxy)-N-(cyanomethyl)-3-hydroxy-11-methyl-14-[methyl-[rac-(2S)-4-amino-2-[[2-(4-tert-butylphenyl)-4,6-dimethyl-pyrimidine-5-carbonyl]amino]butanoyl]amino]-10,13-dioxo-9,12-diazatricyclo[13.3.1.12,6]icosa-1(18),2(20),3,5,15(19),16-hexaene-8-carboxamide]"
6,0.38,"Cc1nc(-c2ccc(C(C)(C)C)cc2)nc(C)c1C(=O)N[C@@H](CCN)C(=O)N(C)[C@@H]1C(=O)N[C@@H](C)C(=O)N[C@H](C(=O)NCC#N)Cc2ccc(O)c(c2)-c2cc1ccc2OC1CCNCC1 (racemic) [Compound 608, rac-(8S,11S,14S)-N-(cyanomethyl)-3-hydroxy-11-methyl-14-[methyl-[rac-(2S)-4-amino-2-[[2-(4-tert-butylphenyl)-4,6-dimethyl-pyrimidine-5-carbonyl]amino]butanoyl]amino]-10,13-dioxo-18-(4-piperidyloxy)-9,12-diazatricyclo[13.3.1.12,6]icosa-1(18),2(20),3,5,15(19),16-hexaene-8-carboxamide]"
7,0.5,"Cc1nc(-c2ccc(C(C)(C)C)cc2)nc(C)c1C(=O)N[C@@H](CCN)C(=O)N(C)[C@@H]1C(=O)N[C@@H](C)C(=O)N[C@H](C(=O)NCC#N)Cc2ccc(OC3CCNCC3)c(c2)-c2cc1ccc2O (racemic) [Compound 609, rac-(8S,11S,14S)-N-(cyanomethyl)-18-hydroxy-11-methyl-14-[methyl-[rac-(2S)-4-amino-2-[[2-(4-tert-butylphenyl)-4,6-dimethyl-pyrimidine-5-carbonyl]amino]butanoyl]amino]-10,13-dioxo-3-(4-piperidyloxy)-9,12-diazatricyclo[13.3.1.12,6]icosa-1(18),2(20),3,5,15(19),16-hexaene-8-carboxamide]"
8,0.19,"Cc1nc(-c2ccc(C(C)(C)C)cc2)nc(C)c1C(=O)N[C@@H](CCN)C(=O)N(C)[C@@H]1C(=O)N[C@@H](C)C(=O)N[C@H](C(=O)NCC#N)Cc2ccc(OCC(CN)CN)c(c2)-c2cc1ccc2O (racemic) [Compound 610, rac-(8S,11S,14S)-3-[3-amino-2-(aminomethyl)propoxy]-N-(cyanomethyl)-18-hydroxy-11-methyl-14-[methyl-[rac-(2S)-4-amino-2-[[2-(4-tert-butylphenyl)-4,6-dimethyl-pyrimidine-5-carbonyl]amino]butanoyl]amino]-10,13-dioxo-9,12-diazatricyclo[13.3.1.12,6]icosa-1(18),2(20),3,5,15(19),16-hexaene-8-carboxamide]"
9,0.19,"Cc1nc(-c2ccc(C(C)(C)C)cc2)nc(C)c1C(=O)N[C@@H](CCN)C(=O)N(C)[C@@H]1C(=O)N[C@@H](C)C(=O)N[C@H](C(=O)NCC#N)Cc2ccc(O)c(c2)-c2cc1ccc2OCC(CN)CN (racemic) [Compound 611, rac-(8S,11S,14S)-18-[3-amino-2-(aminomethyl)propoxy]-N-(cyanomethyl)-3-hydroxy-11-methyl-14-[methyl-[rac-(2S)-4-amino-2-[[2-(4-tert-butylphenyl)-4,6-dimethyl-pyrimidine-5-carbonyl]amino]butanoyl]amino]-10,13-dioxo-9,12-diazatricyclo[13.3.1.12,6]icosa-1(18),2(20),3,5,15(19),16-hexaene-8-carboxamide]"
10,0.25,"Cc1nc(-c2ccc(C(C)(C)C)cc2)nc(C)c1C(=O)N[C@@H](CCN)C(=O)N(C)[C@@H]1C(=O)N[C@@H](C)C(=O)N[C@H](C(=O)NCC#N)Cc2ccc(OC[C@H](N)CO)c(c2)-c2cc1ccc2O (racemic) [Compound 612, rac-(8S,11S,14S)-N-(cyanomethyl)-18-hydroxy-11-methyl-14-[methyl-[rac-(2S)-4-amino-2-[[2-(4-tert-butylphenyl)-4,6-dimethyl-pyrimidine-5-carbonyl]amino]butanoyl]amino]-10,13-dioxo-3-[rac-(2R)-2-amino-3-hydroxy-propoxy]-9,12-diazatricyclo[13.3.1.12,6]icosa-1(18),2(20),3,5,15(19),16-hexaene-8-carboxamide]"
11,0.75,"Cc1nc(-c2ccc(C(C)(C)C)cc2)nc(C)c1C(=O)N[C@@H](CCN)C(=O)N(C)[C@@H]1C(=O)N[C@@H](C)C(=O)N[C@H](C(=O)NCC#N)Cc2ccc(OC[C@@H](N)CO)c(c2)-c2cc1ccc2O (racemic) [Compound 613, rac-(8S,11S,14S)-N-(cyanomethyl)-18-hydroxy-11-methyl-14-[methyl-[rac-(2S)-4-amino-2-[[2-(4-tert-butylphenyl)-4,6-dimethyl-pyrimidine-5-carbonyl]amino]butanoyl]amino]-10,13-dioxo-3-[rac-(2S)-2-amino-3-hydroxy-propoxy]-9,12-diazatricyclo[13.3.1.12,6]icosa-1(18),2(20),3,5,15(19),16-hexaene-8-carboxamide]"

# Same assay, conditions: Escherichia coli, ATCC25922, Table 7, cation adjusted Mueller Hinton Broth + 0.002% Tween-80, 35° C., 22 hours
row,Compound,MIC [µM]
1,"CC(=N)NCCOc1ccc2cc1-c1cc(ccc1O)C[C@@H](C(=O)NCC#N)NC(=O)[C@H](C)NC(=O)[C@H]2N(C)C(=O)[C@H](CCN)NC(=O)c1c(C)nc(-c2ccc(C(C)(C)C)cc2)nc1C (racemic) [Compound 603, rac-(8S,11S,14S)-N-(cyanomethyl)-18-[2-(ethanimidoylamino)ethoxy]-3-hydroxy-11-methyl-14-[methyl-[rac-(2S)-4-amino-2-[[2-(4-tert-butylphenyl)-4,6-dimethyl-pyrimidine-5-carbonyl]amino]butanoyl]amino]-10,13-dioxo-9,12-diazatricyclo[13.3.1.12,6]icosa-1(18),2(20),3,5,15(19),16-hexaene-8-carboxamide]",0.44
2,"Cc1nc(-c2ccc(C(C)(C)C)cc2)nc(C)c1C(=O)N[C@@H](CCN)C(=O)N(C)[C@@H]1C(=O)N[C@@H](C)C(=O)N[C@H](C(=O)NCC#N)Cc2ccc(OC[C@H](O)CN)c(c2)-c2cc1ccc2O (racemic) [Compound 614, rac-(8S,11S,14S)-N-(cyanomethyl)-18-hydroxy-11-methyl-14-[methyl-[rac-(2S)-4-amino-2-[[2-(4-tert-butylphenyl)-4,6-dimethyl-pyrimidine-5-carbonyl]amino]butanoyl]amino]-10,13-dioxo-3-[rac-(2R)-3-amino-2-hydroxy-propoxy]-9,12-diazatricyclo[13.3.1.12,6]icosa-1(18),2(20),3,5,15(19),16-hexaene-8-carboxamide]",0.19
